These results are taken from patent US12594284B2, “Combination of micronutrients to stimulate the endogenous production of hydrogen sulfide (H2S)” (priority 2020, dated 2026).

SMILES strings stand for the structures.

One assay relates to reductive stress. Nature of the assay: Reductive stress induced by vitamin C in healthy male subjects (plasma NADH, erythrocyte GSH). Format: in vivo, human. As to conditions: vitamin C 2 gr per day alone, 1 week. An excerpt: Vitamin C caused a subclinical reductive stress as reported by a 40% increase of plasma NADH and 31% and 63% increase of erythrocyte GSH and GSH to GSSG ratio, respectively. […] Thus, the aforementioned composition prevented the reductive stress induced by a powerful reducing agent.

Assay [1] has as its system endogenous production of H2S (CBS, CSE, 3MST). As to the kind of experiment: Inventor's observations on administration of the micronutrients to humans (H2S production markers, redox, homocysteine, insulin resistance). Format: in vivo, human. The following applies: for triggering of the H2S system by form of vitamin B6: subjects possibly with genetic weakness of vitamin B6 activation and recycling.

Assay [2] has the same test system. As to conditions: subjects with chronically low-vitamin B6 status; cited from earlier work.
Assay [3] has as its system blood pressure of pre-hypertensive patients. The following applies: cited from earlier work.
The mark [4] stands for this setting: taurine added to L-cystine supplementation.
[5] abbreviates: taurine 1.6 gr per day, 12 weeks.
Where [6] appears, read: vitamin B6 added to taurine and L-cystine supplementation.

`O=C1O[C@H]([C@@H](O)CO)C(O)=C1O` [Vitamin C, vitamin C]: in the assay with reductive stress, the “increase of GSH to GSSG ratio” value worked out at 63%, the “increase of erythrocyte GSH” value is given as 31% and the “increase of plasma NADH” value was 40%.

In the case of `N[C@@H](CS)C(=O)O` [cysteine], the H2S levels entry in assay [1] (isolated cysteine administration) is “fail to increase H2S levels”.

As to `Cc1ncc(COP(=O)(O)O)c(C=O)c1O` [pyridoxal-5-phosphate], in assay [1], the “triggering of the H2S system by form of vitamin B6” value is given as “responded normally”.

Consider `Cc1ncc(CO)c(CO)c1O` [pyridoxine, reference compound], for which the “triggering of the H2S system by form of vitamin B6” value in assay [1] is listed as “failed to trigger the system in some subjects”. For the same compound, the “plasma concentrations of lanthionine and homolanthionine” value in assay [2] is “did not respond”.

With `NCCS(=O)(=O)O` [taurine], in assay [1] (setting [4]), the “daily amounts that do not produce any further added effect” value is > 2000 mg and the “daily dose at which increased H2S production compared to L-cystine alone is already measured” value is listed as 100 mg per day. In addition, in assay [3] (human, in vivo), the “expression of CBS and CSE” value is “induced the expression of CBS and CSE”. Also, in assay [3] (setting [5]), the “circulating H2S” value was “increase of circulating H2S”, the “reduction of diastolic blood pressure” value is given as 3.4 mm Hg and the “reduction of systolic blood pressure” value is listed as 4.6 mm Hg.

In the case of `Cc1ncc(CO)c(CO)c1O.Cl` [vitamin B6], in assay [1] (supra-physiological amounts of vitamin B6), the CSE activity result is on record as “effective in activating CSE activity”. Moreover, in assay [1] (setting [6]), the “daily amounts that do not produce any further added effect” value is listed as > 100 mg; the “daily dose at which increased H2S production compared to L-cystine and taurine is already measured” value is given as 2 mg per day.
